Laboratory results as given in patent US20210292438A1, “CONDITIONAL INTERNALIZATION OF PEGYLATED AGENTS BY PRETARGETING BI-SPECIFIC PEG-BINDING ANTIBODIES FOR DIAGNOSIS AND THERAPY” (ACADEMIA SINICA, priority 2017, published 2021).

Columns and labels:
[1] = test system: human MDA-MB-468 TNBC or MDA-MB-231 TNBC xenografts; test: Anti-tumor activity of pre-targeted PEG engager in xenografts; assay type: in vivo, SCID mice; conditions: i.v. once a week for 4 weeks; engager 5 h before drug; free doxorubicin 3 mg/kg, Doxisome 1 mg/kg
Procedure: Anti-tumor activity of PEG engager was tested in mice bearing human MDA-MB-468 TNBC or MDA-MB-231 TNBC xenografts following the procedure below.
Groups of severe combined immunodeficiency (SCID) mice bearing 44.7±10.7 mm^3 MDA-MB-231 (n=6) or 84.3±4.3 mm^3 subcutaneous MDA-MB-468 (n=8) tumors on their right flanks were intravenously injected with PBS or with 6 or 18 mg/kg PEG engagers. After 5 h, the mice were intravenously administrated with free doxorubicin (3 mg/kg) or Doxisome (1 mg/kg or 3 mg/kg). This treatment was repeated once a week for a total of 4 weeks. Tumour sizes were measured every 7 days.

[2] = SCID mice; cited from earlier work

Structure (SMILES): COc1cccc2c1C(=O)c1c(O)c3c(c(O)c1C2=O)C[C@@](O)(C(=O)CO)C[C@@H]3O[C@H]1C[C@H](N)[C@H](O)[C@H](C)O1 [doxorubicin]
- tumor growth [1]: suppressed tumor growth
- maximum-tolerated dose [2]: 2.5 to 3 mg/kg
